{"source": "paper PMC8179358", "about": "“An explicitly designed paratope of amyloid-β prevents neuronal apoptosis in vitro and hippocampal damage in rat brain” (Chemical Science, 2020)", "tested_on": "hippocampal neurons, Aβ40-infused rats", "assay": "Cresyl violet staining of Nissl granules in hippocampal neurons", "format": "in vivo, Sprague-Dawley rats", "settings": "intra-hippocampal Aβ40, vs control and sham, P < 0.01, n = 6", "experimental": "The overproduction of Aβ damages hippocampal neurons and causes cognitive impairments in AD. […] Cresyl violet staining was performed for identification of Nissl granules in neurons to reveal hippocampal neurodegeneration in this experiment. […]\ne. Histopathological experiments for sub-chronic toxicity\nHistopathological analysis was carried out on the preserved liver and kidney tissues. The SP1 treated rats and control rats were sacrificed by decapitation after 42 days of treatment schedule. Organs were removed and fixed in 10% buffered neutral formalin for 48 h. The fixed organs were embedded in paraffin wax. Sections were cut by using a microtome with 5-micrometer thickness. Slides were stained with Haematoxylin and eosin (H &E staining) for histological examination. Slides were observed under the light microscope (Dewinter Smart, India)for histopathological changes, and images were taken at […]\nThe lyophilized Aβ40 peptide was dissolved in artificial cerebrospinal fluid (aCSF: 119mM NaCl, 26.2mm NaHCO3, 2.5mM KCl, 1mM NaH2PO4, 1.3mM MgCl2, 10mM glucose; pH 7.4) solution at a concentration of 1mg/ml for stock and incubated at 37°C for 72 h to induce aggregation. The solution finally kept at 4°C before using it. […]\nrespective concentrations of SP1were prepared from this stock solution. g. […]"}
{"substance": "Aβ40: commercially available Aβ40 peptide", "values": [{"measurement": "intensity of Nissl granules, Aβ40 alone", "value": "significant (P < 0.01) decrease in the intensity of Nissl granules"}]}
